Reference: PubChem BioAssay (NCI)
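Exposure lasted 48 hours, with cells grown in 96-well plates and compounds tested at five concentrations. GI50: concentration for 50% inhibition of growth. The concentration for full growth arrest is given as TGI.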

Key:
Experiment in all cases: DTP human tumour cell line panel, 48 h
SW-620 colon = tested on: SW-620 colon
MDA-MB-435 = tested on: MDA-MB-435
SK-MEL-28 melanoma = tested on: SK-MEL-28 melanoma
SF-539 CNS = tested on: SF-539 CNS
HCT-116 colon = tested on: HCT-116 colon
HL-60(TB) leukemia = tested on: HL-60(TB) leukemia
KM12 colon = tested on: KM12 colon
NCI-H23 lung = tested on: NCI-H23 lung
OVCAR-5 ovarian = tested on: OVCAR-5 ovarian
NCI-H522 lung = tested on: NCI-H522 lung
SF-295 CNS = tested on: SF-295 CNS
HCT-15 colon = tested on: HCT-15 colon
BT-549 breast = tested on: BT-549 breast
UACC-62 melanoma = tested on: UACC-62 melanoma
HS 578T breast = tested on: HS 578T breast
SK-MEL-2 melanoma = tested on: SK-MEL-2 melanoma
TK-10 renal = tested on: TK-10 renal
DU-145 prostate = tested on: DU-145 prostate
PC-3 prostate = tested on: PC-3 prostate
LOX IMVI melanoma = tested on: LOX IMVI melanoma
786-0 renal = tested on: 786-0 renal
CCRF-CEM leukemia = tested on: CCRF-CEM leukemia
RPMI-8226 leukemia = tested on: RPMI-8226 leukemia
A549 NSCLC = tested on: A549 NSCLC
OVCAR-3 ovarian = tested on: OVCAR-3 ovarian
NCI/ADR-RES ovarian = tested on: NCI/ADR-RES ovarian
HOP-62 NSCLC = tested on: HOP-62 NSCLC
MCF7 breast = tested on: MCF7 breast
RXF 393 renal = tested on: RXF 393 renal
UACC-257 melanoma = tested on: UACC-257 melanoma
ACHN renal = tested on: ACHN renal
HT29 colon = tested on: HT29 colon
CAKI-1 renal = tested on: CAKI-1 renal
UO-31 renal = tested on: UO-31 renal
OVCAR-8 ovarian = tested on: OVCAR-8 ovarian
SNB-19 CNS = tested on: SNB-19 CNS
U251 CNS = tested on: U251 CNS
SN12C renal = tested on: SN12C renal
SK-MEL-5 melanoma = tested on: SK-MEL-5 melanoma
IGROV1 ovarian = tested on: IGROV1 ovarian
NCI-H460 lung = tested on: NCI-H460 lung
EKVX NSCLC = tested on: EKVX NSCLC
K-562 leukemia = tested on: K-562 leukemia
SR leukemia = tested on: SR leukemia
MOLT-4 leukemia = tested on: MOLT-4 leukemia
NCI-H226 lung = tested on: NCI-H226 lung
COLO 205 colon = tested on: COLO 205 colon
SNB-75 CNS = tested on: SNB-75 CNS
MDA-MB-231 breast = tested on: MDA-MB-231 breast
SF-268 CNS = tested on: SF-268 CNS

`CN(c1ccc(C(=O)O)cc1)c1cc(O/N=[N+](\[O-])N(C)C)c([N+](=O)[O-])cc1[N+](=O)[O-]` was tested, and the GI50 (SW-620 colon) was 3.64 µM, the TGI (SW-620 colon) was > 100 µM and the GI50 (MDA-MB-435) was 4.84 µM. For the same compound, the TGI (MDA-MB-435) was 19.9 µM, the GI50 (SK-MEL-28 melanoma) was 21 µM and the TGI (SK-MEL-28 melanoma) was 57.1 µM. It also gave a GI50 (SF-539 CNS) of 16.6 µM, a TGI (SF-539 CNS) of 35.8 µM and a GI50 (HCT-116 colon) of 2.72 µM. The TGI (HCT-116 colon) was 10.4 µM, the GI50 (HL-60(TB) leukemia) was 2.84 µM and the TGI (HL-60(TB) leukemia) was 27.4 µM. For the same compound, the GI50 (KM12 colon) was 10.9 µM, the TGI (KM12 colon) was 23.9 µM and the GI50 (NCI-H23 lung) was 4.83 µM. The TGI (NCI-H23 lung) was 29.2 µM, the GI50 (OVCAR-5 ovarian) was 10.8 µM and the TGI (OVCAR-5 ovarian) was 72.5 µM. For the same compound, the GI50 (NCI-H522 lung) was 15.1 µM, the TGI (NCI-H522 lung) was > 100 µM and the GI50 (SF-295 CNS) was 12.6 µM. The TGI (SF-295 CNS) was 27 µM, the GI50 (HCT-15 colon) was 2.03 µM and the TGI (HCT-15 colon) was 5.3 µM. It also gave a GI50 (BT-549 breast) of 17.4 µM, a TGI (BT-549 breast) of 32.6 µM and a GI50 (UACC-62 melanoma) of 7.29 µM. For the same compound, the TGI (UACC-62 melanoma) was 19.8 µM, the GI50 (HS 578T breast) was 21.5 µM and the TGI (HS 578T breast) was 61.3 µM. It also gave a GI50 (SK-MEL-2 melanoma) of 14.9 µM, a TGI (SK-MEL-2 melanoma) of 39.6 µM and a GI50 (TK-10 renal) of 13.9 µM. For the same compound, the TGI (TK-10 renal) was 26.9 µM, the GI50 (DU-145 prostate) was 17.1 µM and the TGI (DU-145 prostate) was 33.5 µM. For the same compound, the GI50 (PC-3 prostate) was 17.5 µM, the TGI (PC-3 prostate) was 38.1 µM and the GI50 (LOX IMVI melanoma) was 1.86 µM. For the same compound, the TGI (LOX IMVI melanoma) was 4.33 µM, the GI50 (786-0 renal) was 3.25 µM and the TGI (786-0 renal) was 14.6 µM. The GI50 (CCRF-CEM leukemia) was > 100 µM, the TGI (CCRF-CEM leukemia) was > 100 µM and the GI50 (RPMI-8226 leukemia) was 2.79 µM. It also gave a TGI (RPMI-8226 leukemia) of 18 µM, a GI50 (A549 NSCLC) of 23.5 µM and a TGI (A549 NSCLC) of 63.7 µM. It also gave a GI50 (OVCAR-3 ovarian) of 2.62 µM, a TGI (OVCAR-3 ovarian) of 6.92 µM and a GI50 (NCI/ADR-RES ovarian) of 3.35 µM. The TGI (NCI/ADR-RES ovarian) was 17.2 µM, the GI50 (HOP-62 NSCLC) was 14.5 µM and the TGI (HOP-62 NSCLC) was 31.3 µM. The GI50 (MCF7 breast) was 6.8 µM, the TGI (MCF7 breast) was 54.8 µM and the GI50 (RXF 393 renal) was 17.1 µM. The TGI (RXF 393 renal) was 33.8 µM, the GI50 (UACC-257 melanoma) was 21 µM and the TGI (UACC-257 melanoma) was 40.6 µM. For the same compound, the GI50 (ACHN renal) was 3.8 µM, the TGI (ACHN renal) was 14.1 µM and the GI50 (HT29 colon) was 23 µM. For the same compound, the TGI (HT29 colon) was > 100 µM, the GI50 (CAKI-1 renal) was 1.79 µM and the TGI (CAKI-1 renal) was 4 µM. The GI50 (UO-31 renal) was 32.1 µM, the TGI (UO-31 renal) was > 100 µM and the GI50 (OVCAR-8 ovarian) was 22.3 µM. It also gave a TGI (OVCAR-8 ovarian) of 54.5 µM, a GI50 (SNB-19 CNS) of 14.6 µM and a TGI (SNB-19 CNS) of 40.7 µM. The GI50 (U251 CNS) was 3.69 µM, the TGI (U251 CNS) was 14.1 µM and the GI50 (SN12C renal) was 12.2 µM. For the same compound, the TGI (SN12C renal) was 25.3 µM, the GI50 (SK-MEL-5 melanoma) was 19.1 µM and the TGI (SK-MEL-5 melanoma) was 38.7 µM. For the same compound, the GI50 (IGROV1 ovarian) was 5.48 µM, the TGI (IGROV1 ovarian) was 24.5 µM and the GI50 (NCI-H460 lung) was 18.9 µM. For the same compound, the TGI (NCI-H460 lung) was > 100 µM, the GI50 (EKVX NSCLC) was 18.2 µM and the TGI (EKVX NSCLC) was 36.2 µM. The GI50 (K-562 leukemia) was 6.99 µM, the TGI (K-562 leukemia) was > 100 µM and the GI50 (SR leukemia) was 19.8 µM. For the same compound, the TGI (SR leukemia) was > 100 µM, the GI50 (MOLT-4 leukemia) was 12.1 µM and the TGI (MOLT-4 leukemia) was > 100 µM. It also gave a GI50 (NCI-H226 lung) of 11.3 µM, a TGI (NCI-H226 lung) of 29 µM and a GI50 (COLO 205 colon) of 8.78 µM. The TGI (COLO 205 colon) was > 100 µM, the GI50 (SNB-75 CNS) was 25.6 µM and the TGI (SNB-75 CNS) was 55.6 µM. It also gave a GI50 (MDA-MB-231 breast) of 3.71 µM, a TGI (MDA-MB-231 breast) of 12.2 µM and a GI50 (SF-268 CNS) of 13.1 µM. It also gave a TGI (SF-268 CNS) of 36.3 µM.
